Experimental data published in patent US11708366B2, “Heteroaryl substituted spiropiperidinyl derivatives and pharmaceutical uses thereof” (Novartis AG, priority 2020, dated 2023).

How the values were obtained:
LTC4S [1] = target: T1, LTC4S (Homo sapiens (Human), UniProt Q16873); experiment: Human LTC4S enzymatic assay (HTRF detection of LTC4-Me); assay type: biochemical
Experimental: A. Human LTC4S Enzymatic Assay:
LTC4 synthase catalyzes the conversion of Leukotriene A4 (LTA4) to Leukotriene C4 (LTC4) in the presence of reduced glutathione (GSH) as a co-substrate. For compound testing, compounds are delivered as 10 mM stock solutions in 90% DMSO in matrix tubes. From this, a 1:3 dilution dose response series is prepared with a starting concentration of 30 μM to 0.1 nM. For the enzymatic assay 97.5 nL of compound/DMSO solution is transferred to each well and 5 μL enzyme solution (assay buffer: 50 mM bis-tris propane pH 7.3, 250 mM NaCl, 10 mM MgCl2, 0.001% MGN3) is added to the wells. […] The enzyme compound mixture is incubated at room temperature for 15 minutes prior to the addition of 5 μL substrate solution. […] A final substrate concentration of 400 μM GSH and 5 μM LTA4-Me is chosen.
The LTA4-Me is obtained commercially in 2% triethylamine/hexane solvent. As this solvent is incompatible with the HTRF assay it has to be exchanged with DMSO according to following procedure: add 50 μL of 100% DMSO to 50 μL LTA4-Me (3 mM) in a 2 mL Eppendorf tube and mix gently by inverting the tube. The triethylamine/hexane is evaporated under a constant argon flux at room temperature. The DMSO-LTA4-Me (3 mM) is aliquoted and stored at −20° C. for not longer than 4 weeks, as it is not stable in DMSO due to its oxidizing properties.
Upon addition of the substrate, the plate is immediately placed on a shaker for 5 min at room temperature. Immediately after the 5 min incubation 5 μL of H2O2 solution is added to all wells to stop the reaction. The plate contents are mixed before the addition of detection reagents. […] For the detection of the product of the enzymatic reaction LTC4-Me, the Cisbio LTC4-HTRF kit is used as the assay is compatible with the detection of LTC4-Me. 5 μL of diluted LTC4-d2 conjugate (according to manufacturer's protocol) are added to all wells of the assay plate and the contents gently mixed and incubated for 5 minutes at room temperature. […] The percent inhibition for each point of an inhibition curve is calculated after data interpolation using the LTC4-Me standard curve, to convert the HTRF signal to the amount of LTC4-Me produced within the LTC4S catalyzed reaction on each plate. The data is analyzed using parametric curve fitting to determine IC50 values of LTC4S inhibitors.

LTC4S [2] = target: T1, LTC4S; experiment: Human whole blood HTRF assay (LTC4 release after calcium ionophore A23187); assay type: cell-based; conditions: calcium ionophore A23187 stimulation, LTC4 by HTRF
[3] = 0.75 nM enzyme, 400 μM GSH, 5 μM LTA4-Me, 15 min pre-incubation, read-out: human LTC4S IC50 (enzymatic assay)
[4] = human whole blood diluted 1:3, 4 h incubation, read-out: human whole blood HTRF IC50

SMILES	IC50 (LTC4S [1]; [3]) [nM]	IC50 (LTC4S [2]; [4]) [nM]	IC50 (LTC4S [1]) [nM]	IC50 (LTC4S [2]; human whole blood HTRF IC50, human whole blood diluted 1:3, 4 h incubation) [nM]
O=C1CCCC2(CCN(c3noc(C45CC(C(F)(F)F)(C4)C5)n3)CC2)N1c1ccc(Cl)c(F)c1 [Example 7, 1-(4-chloro-3-fluorophenyl)-9-(5-(3-(trifluoromethyl)bicyclo[1.1.1]pentan-1-yl)-1,2,4-oxadiazol-3-yl)-1,9-diazaspiro[5.5]undecan-2-one]	76	100		
Cn1cc(-c2ccc(F)cc2)nc(N2CCC3(CCCC(=O)N3c3ccc(Cl)c(F)c3)CC2)c1=O [Example 9, 1-(4-chloro-3-fluorophenyl)-9-(6-(4-fluorophenyl)-4-methyl-3-oxo-3,4-dihydropyrazin-2-yl)-1,9-diazaspiro[5.5]undecan-2-one]	2	48		
O=C1CCCC2(CCN(c3nncc(C4CCCC4)n3)CC2)N1c1ccc(Cl)c(F)c1 [Example 20, 1-(4-chloro-3-fluorophenyl)-9-(5-cyclopentyl-1,2,4-triazin-3-yl)-1,9-diazaspiro[5.5]undecan-2-one]	12	64		
O=C1CCCC2(CCN(c3ncc(-c4ccc(F)cc4)o3)CC2)N1c1ccc(Cl)c(F)c1 [Example 21, 1-(4-chloro-3-fluorophenyl)-9-(5-(4-fluorophenyl)oxazol-2-yl)-1,9-diazaspiro[5.5]undecan-2-one]	4	7		
O=C1CCCC2(CCN(c3nnn(-c4ccccc4)n3)CC2)N1c1ccc(Cl)c(F)c1 [Example 22, 1-(4-chloro-3-fluorophenyl)-9-(2-phenyl-2H-tetrazol-5-yl)-1,9-diazaspiro[5.5]undecan-2-one]	11	530		
O=C1CCCC2(CCN(c3nsc(N4CCC(F)(F)C4)n3)CC2)N1c1ccc(Cl)c(F)c1 [Example 23, 1-(4-chloro-3-fluorophenyl)-9-(5-(3,3-difluoropyrrolidin-1-yl)-1,2,4-thiadiazol-3-yl)-1,9-diazaspiro[5.5]undecan-2-one]	61	45		
O=C1CCCC2(CCN(c3nsc(N4CC(C(F)(F)F)C4)n3)CC2)N1c1ccc(Cl)c(F)c1 [Example 24, 1-(4-chloro-3-fluorophenyl)-9-(5-(3-(trifluoromethyl)azetidin-1-yl)-1,2,4-thiadiazol-3-yl)-1,9-diazaspiro[5.5]undecan-2-one]	33	110		
O=C1CCCC2(CCN(c3nsc(N4CCCC4)n3)CC2)N1c1ccc(Cl)c(F)c1 [Example 25, 1-(4-chloro-3-fluorophenyl)-9-(5-(pyrrolidin-1-yl)-1,2,4-thiadiazol-3-yl)-1,9-diazaspiro[5.5]undecan-2-one]	62	170		
O=C1CCCC2(CCN(c3nc(-c4ccc(F)cc4)n[nH]3)CC2)N1c1ccc(Cl)c(F)c1 [Example 26, 1-(4-chloro-3-fluorophenyl)-9-(3-(4-fluorophenyl)-1H-1,2,4-triazol-5-yl)-1,9-diazaspiro[5.5]undecan-2-one]	16	110		
O=C1CCCC2(CCN(c3ncc(C4CCCCC4)o3)CC2)N1c1ccc(Cl)c(F)c1 [Example 27, 1-(4-chloro-3-fluorophenyl)-9-(5-cyclohexyloxazol-2-yl)-1,9-diazaspiro[5.5]undecan-2-one]	25	59		
O=C1CCCC2(CCN(c3nnc(-c4ccccc4)o3)CC2)N1c1ccc(Cl)c(F)c1 [Example 28, 1-(4-chloro-3-fluorophenyl)-9-(5-phenyl-1,3,4-oxadiazol-2-yl)-1,9-diazaspiro[5.5]undecan-2-one]	110	450		
O=C1CCCC2(CCN(c3cn(-c4ccc(F)cc4)nn3)CC2)N1c1ccc(Cl)c(F)c1 [Example 29, 1-(4-chloro-3-fluorophenyl)-9-(1-(4-fluorophenyl)-1H-1,2,3-triazol-4-yl)-1,9-diazaspiro[5.5]undecan-2-one]			57	180
O=C1CCCC2(CCN(c3ccn(-c4ccc(F)cc4)n3)CC2)N1c1ccc(Cl)c(F)c1 [Example 30, 1-(4-chloro-3-fluorophenyl)-9-(1-(4-fluorophenyl)-1H-pyrazol-3-yl)-1,9-diazaspiro[5.5]undecan-2-one]	13	360		
